Earlier results as cited in publication PMC9099123 (Clinical and Translational Science, 2022).

How the values were obtained:
P-gp = details: co-administration with rifampin; cited from earlier work
BCRP = details: co-administered with rifampin; cited from earlier work

Structure (SMILES): CO[C@H]1/C=C/O[C@@]2(C)Oc3c(C)c(O)c4c(O)c(c(/C=N/N5CCN(C)CC5)c(O)c4c3C2=O)NC(=O)/C(C)=C\C=C\[C@H](C)[C@H](O)[C@@H](C)[C@@H](O)[C@@H](C)[C@H](OC(C)=O)[C@@H]1C [rifampin]
- decrease of AUC of digoxin (P-gp): 30%
- decrease of Cmax of digoxin (P-gp): 58%
- decrease in Cmax of rosuvastatin (BCRP): 30%
